System: VEEV Trinidad donkey, virus titer reduction
Test: log virus titer change, VEEV Trinidad donkey strain, secondary screen at 10 µM (AID 602411)
Settings: hits give low values

SMILES	log virus titer change
CN1CCN(Cc2nc3ccc([N+](=O)[O-])cc3c(=O)n2-c2ccccc2F)CC1	< -5.2
CCN1CCN(Cc2nc3ccc([N+](=O)[O-])cc3c(=O)n2-c2ccccc2F)CC1	< -5.5

Source: PubChem BioAssay AID602411 (Southern Research Specialized Biocontainment Screening …, 2012)
